Drawing on the supplement of paper PMC12137928, this text covers IC50 cell viability for 51 molecules.

Structures can show the parent of a compound that is named as a salt.

For this assay, the system named is HCT116. The conditions noted are these: 72 h. In outline:
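IC50 and maximal efficacy were derived from four-parameter Hill curve fits. The underlying CellTiter-Glo luminescence was scaled so that vehicle equals 0% and positive control equals -100%, and was then pattern-corrected. HCT116 cells had been seeded in 1536-well plates at 250 per well.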

As to `C#C[C@]1(O)CC[C@H]2[C@@H]3CCC4=CCCC[C@@H]4[C@H]3CC[C@@]21C` [Lynestrenol], the IC50 cell viability is, setting by setting: (ICRF193 0 nM) above 45.8 µM; (ICRF193 200 nM) above 45.8 µM.

`CCOc1ccc(NC(C)=O)cc1` [Phenacetin]: the IC50 cell viability was above 45.8 µM (ICRF193 0 nM) and above 45.8 µM (ICRF193 200 nM).

Consider `COC(=O)CCC[N+](C)(C)C` [Carpronium chloride], for which the IC50 cell viability reads like this: (ICRF193 0 nM) above 45.8 µM; (ICRF193 200 nM) above 45.8 µM.

For `O=C([O-])[C@H]1/C(=C/CO)O[C@@H]2CC(=O)N21.[Li+]` [CLAVULANATE LITHIUM], the IC50 cell viability reads like this: (ICRF193 0 nM) above 45.8 µM; (ICRF193 200 nM) above 45.8 µM.

For the molecule `NCCCNCCSP(=O)(O)O` [Amifostine], the IC50 cell viability is above 45.8 µM (ICRF193 0 nM) and above 45.8 µM (ICRF193 200 nM).

For `Oc1cc(O)cc(O)c1` [1,3,5-Trihydroxybenzene dihydrate], the IC50 cell viability is, setting by setting: (ICRF193 0 nM) above 45.8 µM; (ICRF193 200 nM) above 45.8 µM.

Take `CCN(CC)C(=S)SSC(=S)N(CC)CC` [Disulfiram]: the IC50 cell viability was above 45.8 µM (ICRF193 0 nM) and above 45.8 µM (ICRF193 200 nM).

On to `C[C@@H]1C[C@H]2[C@@H]3C[C@H](F)C4=CC(=O)C=C[C@]4(C)[C@@]3(F)[C@@H](O)C[C@]2(C)[C@@]1(O)C(=O)COC(=O)C(C)(C)C` [Flumethasone pivalate], for which the IC50 cell viability is, setting by setting: (ICRF193 0 nM) above 45.8 µM; (ICRF193 200 nM) above 45.8 µM.

For the molecule `O=P(O)(O)OC(Cn1cncn1)(Cn1cncn1)c1ccc(F)cc1F` [Fosfluconazole], the IC50 cell viability is above 45.8 µM (ICRF193 0 nM) and above 45.8 µM (ICRF193 200 nM).

With `COC(=O)N[C@H](C(=O)N1CCC[C@H]1c1nc(-c2ccc3c(c2)O[C@@H](c2ccccc2)n2c-3cc3cc(-c4c[nH]c([C@@H]5CCCN5C(=O)[C@@H](NC(=O)OC)C(C)C)n4)ccc32)c[nH]1)C(C)C` [Elbasvir], the IC50 cell viability by setting is: (ICRF193 0 nM) above 45.8 µM; (ICRF193 200 nM) above 45.8 µM.

Consider `COc1ccc(C(=O)N2CCN(c3ccc4c(c3)CCC(=O)N4)CC2)cc1OC` [Vesnarinone], for which the IC50 cell viability is above 45.8 µM (ICRF193 0 nM) and above 45.8 µM (ICRF193 200 nM).

`c1ccc2[nH]c(-c3cscn3)nc2c1` [Thiabendazole]: the IC50 cell viability reads like this: (ICRF193 0 nM) above 45.8 µM; (ICRF193 200 nM) above 45.8 µM.

On to `O=C(O)COC(=O)Cc1ccccc1Nc1c(Cl)cccc1Cl` [Aceclofenac], for which the IC50 cell viability was above 45.8 µM (ICRF193 0 nM) and above 45.8 µM (ICRF193 200 nM).

Turning to `CCOC(=O)[C@H](CCc1ccccc1)N[C@@H](C)C(=O)N1C(=O)N(C)C[C@H]1C(=O)O` [Imidapril hydrochloride], the IC50 cell viability (ICRF193 0 nM) was above 45.8 µM and the IC50 cell viability (ICRF193 200 nM) was above 45.8 µM.

`COc1cc(NS(=O)(=O)c2ccc(N)cc2)ncn1` [Sulfamonomethoxine]: the IC50 cell viability reads like this: (ICRF193 0 nM) above 45.8 µM; (ICRF193 200 nM) above 45.8 µM.

With `CCCC(=O)OCOC(=O)C1=C(C)NC(C)=C(C(=O)OC)C1c1cccc(Cl)c1Cl` (configuration not stated) [Clevidipine], the IC50 cell viability is, setting by setting: (ICRF193 0 nM) above 45.8 µM; (ICRF193 200 nM) above 45.8 µM.

Regarding `CC(=NNC(=O)c1ccncc1)C(=O)O` [Isoniazid pyruvate], the IC50 cell viability by setting is: (ICRF193 0 nM) above 45.8 µM; (ICRF193 200 nM) above 45.8 µM.

Turning to `O=C(O[C@H]1C[C@H]2CC[C@@H](C1)[N+]21CCCC1)C(O)(c1ccccc1)c1ccccc1` [Trospium chloride], the IC50 cell viability (ICRF193 0 nM) was above 45.8 µM and the IC50 cell viability (ICRF193 200 nM) is above 45.8 µM.

As to `OC(CCN1CCCCC1)(c1ccccc1)C1CCCCC1` (configuration not stated) [Trihexyphenidyl hydrochloride], the IC50 cell viability is, setting by setting: (ICRF193 0 nM) above 45.8 µM; (ICRF193 200 nM) above 45.8 µM.

With `CN(C)/C=N/c1c(I)cc(I)c(CCC(=O)O)c1I` [Ipodate sodium], the IC50 cell viability runs as follows: (ICRF193 0 nM) above 45.8 µM; (ICRF193 200 nM) above 45.8 µM.

For the molecule `CC(C)[C@H]1C(=O)N[C@@H](CCCNC(=N)N)C(=O)NCC(=O)N[C@@H](CC(=O)O)C(=O)N[C@H](Cc2ccccc2)C(=O)N1C` [Cilengitide], the IC50 cell viability is, setting by setting: (ICRF193 0 nM) above 45.8 µM; (ICRF193 200 nM) above 45.8 µM.

Consider `CCOC(=O)COc1ccc2c(C)c(CCN(CC)CC)c(=O)oc2c1` [Chromonar hydrochloride], for which the IC50 cell viability was above 45.8 µM (ICRF193 0 nM) and above 45.8 µM (ICRF193 200 nM).

With `CCOC(=O)C1=C[C@@H](OC(CC)CC)[C@H](NC(C)=O)[C@@H](N)C1` [Oseltamivir Phosphate], the IC50 cell viability is, setting by setting: (ICRF193 0 nM) above 45.8 µM; (ICRF193 200 nM) above 45.8 µM.

On to `COc1ncnc(NS(=O)(=O)c2ccc(N)cc2)c1OC` [Sulfadoxine], for which the IC50 cell viability reads like this: (ICRF193 0 nM) above 45.8 µM; (ICRF193 200 nM) above 45.8 µM.

Turning to `CCN1CCN(c2cc(-c3ccc(F)cc3)c3c(n2)CCCCCC3)CC1` [Blonanserin], the IC50 cell viability was above 45.8 µM (ICRF193 0 nM) and above 45.8 µM (ICRF193 200 nM).

Take `C(=C\c1ccncc1)/c1ccccc1` [4-Styrylpyridine]: the IC50 cell viability by setting is: (ICRF193 0 nM) above 45.8 µM; (ICRF193 200 nM) above 45.8 µM.

As for `COc1cc2c(c(OC)c1OC)-c1c(cc3c(c1OC)OCO3)C[C@H](C)[C@@](C)(O)C2` [Schisandrol B], the IC50 cell viability is above 45.8 µM (ICRF193 0 nM) and above 45.8 µM (ICRF193 200 nM).

For `Oc1ccc(C(O)CNCCCCCCNCC(O)c2ccc(O)c(O)c2)cc1O` (configuration not stated) [Hexoprenaline sulfate], the IC50 cell viability (ICRF193 0 nM) is above 45.8 µM and the IC50 cell viability (ICRF193 200 nM) is above 45.8 µM.

Take `C[N+]1(C)CCC(OC(=O)C(O)(c2ccccc2)C2CCCC2)C1` (configuration not stated) [Glycopyrrolate bromide]: the IC50 cell viability is above 45.8 µM (ICRF193 0 nM) and above 45.8 µM (ICRF193 200 nM).

`NS(=O)(=O)c1cc2c(cc1C(F)(F)F)NCNS2(=O)=O` [Hydroflumethiazide]: the IC50 cell viability by setting is: (ICRF193 0 nM) above 45.8 µM; (ICRF193 200 nM) above 45.8 µM.

With `CC/C=C\C/C=C\C/C=C\C/C=C\C/C=C\CCCC(=O)OCC` [Eicosapentaenoic acid ethyl ester], the IC50 cell viability (ICRF193 0 nM) is above 45.8 µM and the IC50 cell viability (ICRF193 200 nM) was above 45.8 µM.

In the case of `COc1cc(O)c(C(=O)c2ccccc2)cc1S(=O)(=O)O` [Sulisobenzone], the IC50 cell viability is above 45.8 µM (ICRF193 0 nM) and above 45.8 µM (ICRF193 200 nM).

On to `CC[C@H](C)[C@H](N)C1=N[C@H](C(=O)N[C@@H](CC(C)C)C(=O)N[C@H](CCC(=O)O)C(=O)N[C@H](C(=O)N[C@H]2CCCCNC(=O)[C@H](CC(N)=O)NC(=O)[C@@H](CC(=O)O)NC(=O)[C@H](Cc3cnc[nH]3)NC(=O)[C@@H](Cc3ccccc3)NC(=O)[C@H]([C@@H](C)CC)NC(=O)[C@@H](CCCN)NC2=O)[C@@H](C)CC)CS1` [Bacitracin], for which the IC50 cell viability was above 45.8 µM (ICRF193 0 nM) and above 45.8 µM (ICRF193 200 nM).

Regarding `CC1(C)S[C@@H]2[C@H](NC(=O)[C@H](N)c3ccccc3)C(=O)N2[C@H]1C(=O)OCOC(=O)[C@@H]1N2C(=O)C[C@H]2S(=O)(=O)C1(C)C` [Sultamicillin tosylate], the IC50 cell viability (ICRF193 0 nM) is above 45.8 µM and the IC50 cell viability (ICRF193 200 nM) is above 45.8 µM.

Consider `CCCN[C@H]1CCc2nc(N)sc2C1` [Pramipexole hydrochloride], for which the IC50 cell viability is above 45.8 µM (ICRF193 0 nM) and above 45.8 µM (ICRF193 200 nM).

On to `Cc1onc(-c2ccccc2)c1-c1ccc(S(N)(=O)=O)cc1` [Valdecoxib], for which the IC50 cell viability (ICRF193 0 nM) is above 45.8 µM and the IC50 cell viability (ICRF193 200 nM) was above 45.8 µM.

As to `CNCC(=O)OCc1cccnc1N(C)C(=O)OC(C)[n+]1cnn(C[C@](O)(c2cc(F)ccc2F)[C@@H](C)c2nc(-c3ccc(C#N)cc3)cs2)c1` (some centres not stated) [ISAVUCONAZONIUM SULFATE], the IC50 cell viability is, setting by setting: (ICRF193 0 nM) above 45.8 µM; (ICRF193 200 nM) above 45.8 µM.

In the case of `Cc1cn(-c2cc(NC(=O)c3ccc(C)c(Nc4nccc(-c5cccnc5)n4)c3)cc(C(F)(F)F)c2)cn1` [Nilotinib], the IC50 cell viability was above 45.8 µM (ICRF193 0 nM) and above 45.8 µM (ICRF193 200 nM).

Take `CN(C)CCC(O)(c1ccccc1)c1ccccc1Cl` (configuration not stated) [Chlophedianol]: the IC50 cell viability reads like this: (ICRF193 0 nM) above 45.8 µM; (ICRF193 200 nM) above 45.8 µM.

Take `COc1c2c(cc3c1OCO3)CCN(C)C2` [Hydrocotarnine hydrobromide]: the IC50 cell viability by setting is: (ICRF193 0 nM) above 45.8 µM; (ICRF193 200 nM) above 45.8 µM.

Turning to `Nc1ccc(C(=O)O)cc1` [4-Aminobenzoic acid], the IC50 cell viability (ICRF193 0 nM) was above 45.8 µM and the IC50 cell viability (ICRF193 200 nM) is above 45.8 µM.

On to `NCC[C@H](O)C(=O)N[C@@H]1C[C@H](N)[C@@H](O[C@H]2O[C@H](CN)[C@@H](O)[C@H](O)[C@H]2O)[C@H](O)[C@H]1O[C@H]1O[C@H](CO)[C@@H](O)[C@H](N)[C@H]1O` [Amikacin], for which the IC50 cell viability by setting is: (ICRF193 0 nM) above 45.8 µM; (ICRF193 200 nM) above 45.8 µM.

In the case of `N#Cc1cc(-c2n[nH]c(-c3ccncc3)n2)ccn1` [Topiroxostat], the IC50 cell viability is, setting by setting: (ICRF193 0 nM) above 45.8 µM; (ICRF193 200 nM) above 45.8 µM.

As for `CCCCCCCCCCCC(=O)[O][Sn]([CH2]CCC)([CH2]CCC)[O]C(=O)CCCCCCCCCCC` [Dibutyltin dilaurate], the IC50 cell viability was above 45.8 µM (ICRF193 0 nM) and above 45.8 µM (ICRF193 200 nM).

As to `CC(C)NC(=N)NC(=N)Nc1ccc(Cl)cc1` [Proguanil hydrochloride], the IC50 cell viability is, setting by setting: (ICRF193 0 nM) above 45.8 µM; (ICRF193 200 nM) above 45.8 µM.

Regarding `CCN(CC)C(=O)/C(C#N)=C/c1cc(O)c(O)c([N+](=O)[O-])c1` [Entacapone], the IC50 cell viability is above 45.8 µM (ICRF193 0 nM) and above 45.8 µM (ICRF193 200 nM).

Turning to `CNCC(O)c1ccc(OC(=O)C(C)(C)C)c(OC(=O)C(C)(C)C)c1` (configuration not stated) [Dipivefrin hydrochloride], the IC50 cell viability reads like this: (ICRF193 0 nM) above 45.8 µM; (ICRF193 200 nM) above 45.8 µM.

Take `CCCC1O[C@@H]2C[C@H]3[C@@H]4CCC5=CC(=O)C=C[C@]5(C)[C@H]4[C@@H](O)C[C@]3(C)[C@]2(C(=O)CO)O1` (some centres not stated) [Budesonide]: the IC50 cell viability was above 45.8 µM (ICRF193 0 nM) and above 45.8 µM (ICRF193 200 nM).

`O=C1/C(=C2\Nc3ccccc3C2=O)Nc2ccccc21` [Indigo]: the IC50 cell viability is, setting by setting: (ICRF193 0 nM) above 45.8 µM; (ICRF193 200 nM) above 45.8 µM.

Consider `CCC1(c2ccc(N)cc2)CCC(=O)NC1=O` (configuration not stated) [Aminoglutethimide], for which the IC50 cell viability is above 45.8 µM (ICRF193 0 nM) and above 45.8 µM (ICRF193 200 nM).

The molecule `CC(C[N+](C)(C)C)OC(N)=O` (configuration not stated) [Bethanechol chloride] gave an IC50 cell viability (ICRF193 0 nM) above 45.8 µM and an IC50 cell viability (ICRF193 200 nM) above 45.8 µM.
